Assay results taken from PubChem BioAssay AID248 (DTP/NCI, 2004).
“And” between values parts separate entries of the source, which are not always exact repeats. Identical values can stand only once. Inconclusive results and toxic doses are left out. Cut-off read from the data, not from the text of the source: active = T/C of 150% or more; inactive = T/C below 125%.

Test system: L1210 leukemia ip in BDF1 mice, survival T/C
Assay: NCI In Vivo Anticancer Drug Screen. Data for tumor model L1210 Leukemia (intraperitoneal) in B6D2F1 (BDF1) mice
Conditions: endpoint: mean survival time, higher = longer survival
Method in brief: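 Survival endpoint. Drug-treated group vs vehicle group, expressed as T divided by C. Tumor passaged by transplantation.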

[1] = dose: 100.0 mg/kg/injection, schedule: Q01DX001 (ip), vehicle: saline with Tween-80
[2] = dose: 200.0 mg/kg/injection, schedule: Q01DX001 (ip), vehicle: saline with Tween-80
[3] = dose: 100.0 mg/kg/injection, schedule: Q04DX002 (ip), vehicle: saline with Tween-80
[4] = dose: 200.0 mg/kg/injection, schedule: Q04DX002 (ip), vehicle: saline with Tween-80
[5] = dose: 100.0 mg/kg/injection, schedule: Q01DX009 (ip), vehicle: saline
[6] = dose: 100.0 mg/kg/injection, schedule: Q04DX003 (ip), vehicle: saline
[7] = dose: 200.0 mg/kg/injection, schedule: Q01DX009 (ip), vehicle: saline
[8] = dose: 200.0 mg/kg/injection, schedule: Q04DX003 (ip), vehicle: saline
[9] = dose: 400.0 mg/kg/injection, schedule: Q04DX003 (ip), vehicle: saline
[10] = dose: 100.0 mg/kg/injection, schedule: Q01DX001 (ip), vehicle: saline
[11] = dose: 200.0 mg/kg/injection, schedule: Q01DX001 (ip), vehicle: saline
[12] = dose: 100.0 mg/kg/injection, schedule: Q04DX003 (ip), vehicle: saline with Tween-80
[13] = dose: 200.0 mg/kg/injection, schedule: Q04DX003 (ip), vehicle: saline with Tween-80
[14] = dose: 100.0 mg/kg/injection, schedule: Q01DX009 (ip), vehicle: saline with Tween-80
[15] = dose: 200.0 mg/kg/injection, schedule: Q01DX009 (ip), vehicle: saline with Tween-80

Measured: T/C

Fc1c(F)c(F)c(-c2c(F)c(F)c(-c3c(F)c(F)c(-c4c(F)c(F)c(F)c(F)c4F)c(F)c3F)c(F)c2F)c(F)c1F
inactive: [1] 88 % of control | [2] 88 % of control | dose: 400.0 mg/kg/injection, schedule: Q01DX001 (ip), vehicle: saline with Tween-80 88 % of control

CC(=O)Nc1ccc(NC(=O)Nc2cccc(C(F)(F)F)c2)cc1
inactive: dose: 100.0 mg/kg/injection, schedule: Q01DX009 (ip), vehicle: Klucel (hydroxypropylcellulose) (HPC) 94 % of control | dose: 200.0 mg/kg/injection, schedule: Q01DX009 (ip), vehicle: Klucel (hydroxypropylcellulose) (HPC) 87 % of control

CN(C)Cc1c(O)ccc2ccccc12
inactive: [3] 100 % of control | [4] 90 % of control

COc1ccc(O)c(C(=O)c2cccc(OC)c2C#N)c1
inactive: dose: 25.0 mg/kg/injection, schedule: Q04DX003 (ip), vehicle: carboxymethylcellulose (CMC) 104 % of control | dose: 50.0 mg/kg/injection, schedule: Q01DX001 (ip), vehicle: carboxymethylcellulose (CMC) 103 % of control | dose: 50.0 mg/kg/injection, schedule: Q04DX003 (ip), vehicle: carboxymethylcellulose (CMC) 116 % of control | dose: 100.0 mg/kg/injection, schedule: Q01DX001 (ip), vehicle: carboxymethylcellulose (CMC) 97 % of control | dose: 100.0 mg/kg/injection, schedule: Q01DX009 (ip), vehicle: carboxymethylcellulose (CMC) 99 % of control and 100 % of control | dose: 100.0 mg/kg/injection, schedule: Q04DX002 (ip), vehicle: carboxymethylcellulose (CMC) 100 % of control and 91 % of control | dose: 100.0 mg/kg/injection, schedule: Q04DX003 (ip), vehicle: carboxymethylcellulose (CMC) 107 % of control and 86 % of control | dose: 200.0 mg/kg/injection, schedule: Q01DX001 (ip), vehicle: carboxymethylcellulose (CMC) 99 % of control | dose: 200.0 mg/kg/injection, schedule: Q01DX009 (ip), vehicle: carboxymethylcellulose (CMC) 97 % of control and 87 % of control | dose: 200.0 mg/kg/injection, schedule: Q04DX002 (ip), vehicle: carboxymethylcellulose (CMC) 104 % of control and 108 % of control | dose: 400.0 mg/kg/injection, schedule: Q01DX001 (ip), vehicle: carboxymethylcellulose (CMC) 99 % of control | dose: 400.0 mg/kg/injection, schedule: Q01DX009 (ip), vehicle: carboxymethylcellulose (CMC) 110 % of control and 86 % of control | dose: 400.0 mg/kg/injection, schedule: Q04DX002 (ip), vehicle: carboxymethylcellulose (CMC) 97 % of control and 90 % of control

NC(N)=N/N=C\c1ccc(C2CCNCC2)cc1
inactive: dose: 15.0 mg/kg/injection, schedule: Q01DX Z (ip), vehicle: methylcellulose (MC) 107 % of control | dose: 15.0 mg/kg/injection, schedule: Q01DX Z (oral), vehicle: methylcellulose (MC) 110 % of control | dose: 30.0 mg/kg/injection, schedule: Q01DX Z (ip), vehicle: methylcellulose (MC) 108 % of control | dose: 30.0 mg/kg/injection, schedule: Q01DX Z (oral), vehicle: methylcellulose (MC) 100 % of control | dose: 60.0 mg/kg/injection, schedule: Q01DX Z (oral), vehicle: methylcellulose (MC) 104 % of control

O=C(O)CCCC[P+](c1ccccc1)(c1ccccc1)c1ccccc1
inactive: [5] 98 % of control | [6] 105 % of control | [7] 100 % of control | [8] 107 % of control | [9] 102 % of control

Oc1ccccc1C=Nc1cc(Cl)ccc1O
inactive: [10] 97 % of control | [11] 95 % of control | dose: 400.0 mg/kg/injection, schedule: Q01DX001 (ip), vehicle: saline 103 % of control

Fc1c(F)c(F)c(Oc2nc(Oc3c(F)c(F)c(F)c(F)c3F)nc(-c3ccccc3)n2)c(F)c1F
inactive: dose: 25.6 mg/kg/injection, schedule: Q04DX002 (ip), vehicle: saline with Tween-80 91 % of control | dose: 64.0 mg/kg/injection, schedule: Q04DX002 (ip), vehicle: saline with Tween-80 102 % of control | [12] 92 % of control | dose: 160.0 mg/kg/injection, schedule: Q04DX002 (ip), vehicle: saline with Tween-80 94 % of control | [13] 92 % of control | dose: 400.0 mg/kg/injection, schedule: Q04DX002 (ip), vehicle: saline with Tween-80 105 % of control | dose: 400.0 mg/kg/injection, schedule: Q04DX003 (ip), vehicle: saline with Tween-80 87 % of control

O=C(O)c1cc(N2CCCC2)ccn1
inactive: [10] 96 % of control | [11] 101 % of control

COc1cccc(OC)c1-c1oc2ccccc2c(=O)c1O
inactive: dose: 100.0 mg/kg/injection, schedule: Q01DX009 (ip), vehicle: acetone 94 % of control | [6] 95 % of control | dose: 200.0 mg/kg/injection, schedule: Q01DX009 (ip), vehicle: acetone 95 % of control | [8] 94 % of control | dose: 400.0 mg/kg/injection, schedule: Q01DX009 (ip), vehicle: acetone 95 % of control | [9] 94 % of control

CN(C)CCNS(C)(=O)=O
inactive: [5] 105 % of control | [6] 98 % of control | [7] 105 % of control | [8] 100 % of control | dose: 400.0 mg/kg/injection, schedule: Q01DX009 (ip), vehicle: saline 109 % of control | [9] 100 % of control

Cc1ccc2cccc(CC(=O)NN)c2c1
inactive: dose: 50.0 mg/kg/injection, schedule: Q01DX001 (ip), vehicle: saline with Tween-80 92 % of control | dose: 50.0 mg/kg/injection, schedule: Q01DX009 (ip), vehicle: saline with Tween-80 102 % of control | dose: 50.0 mg/kg/injection, schedule: Q04DX003 (ip), vehicle: saline with Tween-80 92 % of control | [1] 92 % of control | [14] 102 % of control | [3] 93 % of control | [12] 90 % of control | [2] 103 % of control | [15] 111 % of control | [4] 98 % of control | [13] 89 % of control

O=c1oc2ccccc2c(N2CCCCC2)c1Cl
inactive: dose: 100.0 mg/kg/injection, schedule: Q04DX002 (ip), vehicle: gum acacia 111 % of control | dose: 200.0 mg/kg/injection, schedule: Q04DX002 (ip), vehicle: gum acacia 104 % of control | dose: 400.0 mg/kg/injection, schedule: Q04DX002 (ip), vehicle: gum acacia 93 % of control

CSC(N)=Nc1ccc(C(=O)O)cc1
inactive: [14] 105 % of control | [15] 112 % of control | dose: 400.0 mg/kg/injection, schedule: Q01DX009 (ip), vehicle: saline with Tween-80 97 % of control

COC(=O)/C=C/c1ccc(OC)c(OC)c1
inactive: dose: 100.0 mg/kg/injection, schedule: Q04DX003 (ip), vehicle: Klucel (hydroxypropylcellulose) (HPC) 93 % of control | dose: 200.0 mg/kg/injection, schedule: Q04DX003 (ip), vehicle: Klucel (hydroxypropylcellulose) (HPC) 95 % of control | dose: 400.0 mg/kg/injection, schedule: Q04DX003 (ip), vehicle: Klucel (hydroxypropylcellulose) (HPC) 102 % of control

CCN1C(=O)C(Cl)=C(Cl)C1=O
inactive: dose: 1.56 mg/kg/injection, schedule: Q01DX009 (ip), vehicle: saline with Tween-80 94 % of control | dose: 3.13 mg/kg/injection, schedule: Q01DX009 (ip), vehicle: saline with Tween-80 91 % of control | dose: 6.25 mg/kg/injection, schedule: Q01DX009 (ip), vehicle: saline with Tween-80 92 % of control and 87 % of control

CCC(=O)NC1=CC(=O)c2ccccc2C1=O
inactive: dose: 75.0 mg/kg/injection, schedule: Q01DX001 (ip), vehicle: carboxymethylcellulose (CMC) 98 % of control | dose: 150.0 mg/kg/injection, schedule: Q01DX001 (ip), vehicle: carboxymethylcellulose (CMC) 97 % of control | dose: 300.0 mg/kg/injection, schedule: Q01DX001 (ip), vehicle: carboxymethylcellulose (CMC) 95 % of control
